# According to patent US8658158B2, “Sensitization of chemotherapeutic agent resistant neoplastic cells with a virus” (Oncolytics Biotech Inc., priority 2001, dated 2014):
# “Also recorded” adds a separate entry of the source.
# System: ras-transformed C3H cells (C3H10T1/2 derived tumors)
# Assay: Tumor growth in C3H mice bearing subcutaneous ras-transformed C3H cell tumors, treated with reovirus and/or cisplatin
# Format: in vivo
# Settings: syngeneic tumors measured daily from Day 0, cisplatin 2.5 mg/kg tail vein Days 10, 16, 22, reovirus 5×10^8 PFUs i.v. Days 0, 6, 12, 18
# Source text: C3H mice (Charles River) were implanted subcutaneously with 1.0×10^6 […] ras-transformed C3H cells (a gift of D. Edwards, University of Calgary) and allowed to develop tumors. The Dearing strain of reovirus serotype 3 used in these studies was propagated in suspension cultures of L cells and purified according to Smith (Smith et al., 1969) with the exception that β-mercaptoethanol (β-ME) was omitted from the extraction buffer. The particle/PFU ratio for purified reovirus was typically 100/1.
# The tumor bearing mice were treated with 4 different regimes as described below:
# For animals which received reovirus (Series 3-4), 5×10^8 PFUs of reovirus (in 20 μl of saline) were injected intravenously via the tail vein of the animals on Days 0, 6, 12, and 18. […] Cisplatin was injected into the tail vein on Days 10, 16 and 22 at a dose of 2.5 mg per kilogram of body weight. The tumors were measured daily from Day 0 to assess growth rate of the tumors.
compound,measurement,value
N.N.[Cl][Pt][Cl] [cisplatin],effect on growth rate of the tumors,essentially no inhibitory effects; also recorded: no effect on the tumor; also recorded: growth rate that was essentially the same as untreated tumors
